{"source": "patent US9034878B2", "about": "“Treatment of diseases” (Ampio Pharmaceuticals, Inc., priority 2010, dated 2015)", "key": {"[1]": {"assay": "Plasma lipids after a single oral dose of DA-DKP in human volunteers", "assay_type": "in vivo", "settings": "100 mg oral; all three subjects", "experimental": "(§1) • 1. Two human male volunteers and one human volunteer (respectively) were administered 100 mg of DA-DKP (packed in a gelatin capsule) orally on an empty stomach after overnight fasting. The DA-DKP was composed of L-aspartic acid and L-alanine. • 2. Venous blood samples were drawn into heparinized and EDTA vacutainers at baseline (time zero), 2 hours (hrs), 4 hrs and 24 hrs after the ingestion of the DA-DKP. • 3. Blood samples were analyzed for a complete blood count (CBC) and a biochemical survey, including plasma lipids at baseline and at the 24 hrs time points. Plasma was also used for measurement of the level of DA-DKP by a liquid chromatography mass spectrometer (LCMS) method (protocol and results given below). • 4. Peripheral blood monocytes (PBMC) from heparinized bloods were extracted by Ficoll gradient method and analyzed by flow cytometry. The protocol and results are given below. • 5. Urines were collected for 24 hrs and volumes were recorded. DA-DKP levels were also measured by LCMS. • 6. Saliva at 2 hrs was tested for the presence of DA-DKP by LCMS. Summary of Results: • 1. CBC's were unchanged and remained within the normal range. • 2. […] Urine levels of DA-DKP were calculated (see Table 2). • 6. Saliva DA-DKP levels were calculated (see Table 2) • 7. […]"}, "endothelial cells": {"tested_on": "endothelial cells", "settings": "provisional application No. 61/380,404; cited from earlier work"}, "T-cells": {"tested_on": "T-cells", "settings": "U.S. Pat. Nos. 6,555,543 and 7,732,403; cited from earlier work"}, "platelets": {"tested_on": "platelets", "settings": "U.S. Pat. Nos. 6,555,543 and 7,732,403; cited from earlier work"}, "[2]": {"assay": "Complete blood count and biochemical survey after oral DA-DKP", "assay_type": "in vivo", "settings": "100 mg oral, human", "experimental": "as §1"}, "MAPK": {"tested_on": "MAPK", "settings": "reference 12; cited from earlier work"}, "[3]": {"tested_on": "Subcutaneous preadipocytes", "assay": "Adipogenesis assay (AdipoRed fluorescence)", "assay_type": "cell-based", "settings": "14 days differentiation", "experimental": "Subcutaneous preadipocytes (Zen-Bio, Inc., Research Triangle Park, N.C.) were cultured to near confluency at 5% CO2, 37° C. in Preadipocyte Growth Medium-2 (PGM-2, Lonza, Walkersville, Md.) containing 10% fetal bovine serum (FBS), L-glutamine, and GA-1000. Cells were harvested using trypsin/EDTA (Lonza) and initially seeded in 96-well black/clear bottom plates at 3,000 cells/well. Cells were allowed to form a confluent monolayer for 7 days in culture.\n7-day old medium was aspirated and cells were dosed with DA-DKP (doses used in PGM-2 media: 25, 50, or 100 μM) in triplicate on two plates. The DA-DKP was composed of L-aspartic acid and L-alanine. […]\nAfter the 14 day incubation period, culture media were collected from all wells and stored at −20° C. for IL-6 ELISA (see below). […] After 10 minutes, fluorescence was measured on a plate reader set at λEX=485 nm and λEM=572 nm.\nThe triplicate fluorescent values for each treatment were averaged and subtracted from the average media only (i.e. no cells) wells. For the differentiated wells, a % change was calculated by subtracting the average fluorescent value for the differentiated cells from the undifferentiated cells for each treatment group. […] All data are expressed as ±SD. […]"}, "[4]": {"tested_on": "vascular endothelial barrier", "settings": "provisional application No. 61/380,404; cited from earlier work"}, "[5]": {"assay": "Effects noticed by subjects after oral DA-DKP (appetite, analgesia, side effects)", "assay_type": "in vivo, human", "settings": "100 mg oral", "experimental": "(§2) • 1. Two human male volunteers and one human volunteer (respectively) were administered 100 mg of DA-DKP (packed in a gelatin capsule) orally on an empty stomach after overnight fasting. The DA-DKP was composed of L-aspartic acid and L-alanine. • 2. Venous blood samples were drawn into heparinized and EDTA vacutainers at baseline (time zero), 2 hours (hrs), 4 hrs and 24 hrs after the ingestion of the DA-DKP. • 3. Blood samples were analyzed for a complete blood count (CBC) and a biochemical survey, including plasma lipids at baseline and at the 24 hrs time points. Plasma was also used for measurement of the level of DA-DKP by a liquid chromatography mass spectrometer (LCMS) method (protocol and results given below). • 4. Peripheral blood monocytes (PBMC) from heparinized bloods were extracted by Ficoll gradient method and analyzed by flow cytometry. The protocol and results are given below. • 5. Urines were collected for 24 hrs and volumes were recorded. DA-DKP levels were also measured by LCMS. • 6. Saliva at 2 hrs was tested for the presence of DA-DKP by LCMS. Summary of Results: • 1. CBC's were unchanged and remained within the normal range. • 2. BUN, glucose electrolytes, creatinine, liver function tests, total protein, albumin and calcium were unchanged and within the normal range at 24 hours post ingestion. • 3. […] Urine levels of DA-DKP were calculated (see Table 2). • 6. Saliva DA-DKP levels were calculated (see Table 2) • 7. PBMC results are described below. • 8. Effects noticed by subjects: • a. Significant loss of appetite (lasting 8-9 hrs)—3/3 subjects • b. Slight dry mouth—2/3 subjects • c. Thick saliva—1/3 subjects • d. […] Laxative effect—1/3 subjects • f. Slight drowsiness—1/3 subjects * Analgesic Effect:\nOne subject had left knee and left Sacroiliac (SI) joint pain. […] The pain originates probably from inflammation caused by sarcoidosis and was 6-7 on a scale of 1-10 before treatment. The effect lasted for about 4 hrs."}, "interleukin-6 (IL-6)": {"tested_on": "interleukin-6 (IL-6)", "assay": "IL-6 ELISA of preadipocyte culture media", "assay_type": "cell-based", "settings": "after the 2 week differentiation period (data not shown)", "experimental": "7-day old medium was aspirated and cells were dosed with DA-DKP (doses used in PGM-2 media: 25, 50, or 100 μM) in triplicate on two plates. The DA-DKP was composed of L-aspartic acid and L-alanine. PGM-2 differentiation media (containing insulin, dexamethasone, indomethacin, and isobutyl-methylxanthine; Lonza) was added to one plate, while PGM-2 media was added to the other. Plates were then placed back in culture and allowed to incubate for 14 days.\nAfter the 14 day incubation period, culture media were collected from all wells and stored at −20° C. for IL-6 ELISA (see below). Wells were rinsed once with 1×PBS (Lonza). 50 μL M-PER lysis solution (Thermo Scientific, Rockford, Ill.) were added to all wells, and complete cell lysis was achieved by mixing each well. 150 μL 1×PBS was added to each well. 5 μL AdipoRed™ Reagent (Lonza) was added to each well, and the plate was mixed immediately by gentle tapping. After 10 minutes, fluorescence was measured on a plate reader set at λEX=485 nm and λEM=572 nm.\nEnzyme-linked immunosorbent assay (ELISA) matched-pair antibodies for interleukin-6 (IL-6) were obtained from Thermo Scientific (Rockford, Ill.). IL-6 was analyzed by ELISA and performed according to the manufacturer's instructions. A 1:10 dilution of each supernatant was measured in duplicate using an IL-6 standard (Thermo Scientific, Rockford, Ill.)."}, "[6]": {"assay": "DA-DKP LCMS measurement in plasma, urine and saliva after oral dose", "assay_type": "in vivo, human", "settings": "100 mg oral", "experimental": "as §2, with “Venous blood samples were drawn into heparinized and EDTA vacutainers at baseline (time zero), 2 hours (hrs), 4 hrs and 24 hrs after the ingestion of the DA-DKP. • 3.” left out\nPlasma or urines were passed through a <5 Kd filter and 50 μl of the flow-through fractions were injected into high performance liquid chromatography (HPLC, 2975 system, Waters, Mass.) coupled to a mass spectrometer (LCT-TOF, Micromass, UK) and DA-DKP was quantified using a strong anion exchange column (Spherisorb, S5 SAX 250 mm×4.0 mm, Waters) and a ternary mobile phase consisting of water, methanol and 200 mM Ammonium Formate (Sigma Aldrich, Mo.), pH 5.4, at 0.5 ml/min flow rate in a gradient as shown in Table A.\nThe output of the HPLC was split 1:20 (v:v) and injected into the mass spectrometer using negative electrospray ionization (−ESI MS) with a scan range of 80 to 1000 m/z, cone voltage of 30 eV, source temperature of 100° C., and gas temperature of 300° C. DA-DKP was measured by monitoring the mass 185 in time, which corresponds to DA-DKP minus a single proton (—H+). DA-DKP elutes at 10.4 minutes and was quantified by integrating the area under the curve. The area was compared to a standard curve derived from synthetic DA-DKP standards (DMI Synthesis, Newport Wales, UK) of known concentrations (2000 ng/ml, 1000 ng/ml, 400 ng/ml, 200 ng/ml, 100 ng/ml, 20 ng/ml)."}, "[7]": {"tested_on": "Peripheral blood mononuclear cells (PBMC)", "assay": "PBMC CD69 expression by flow cytometry after OKT3 stimulation (ex vivo)", "assay_type": "cell-based, human", "settings": "single individual", "experimental": "as §1, with “Plasma was also used for measurement of the level of DA-DKP by a liquid chromatography mass spectrometer (LCMS) method (protocol and results given below). • 4.” left out, “The protocol and results are given below. • 5.” left out, “6.” for “6. Saliva at 2 hrs was tested for the presence of DA-DKP by LCMS. Summary of Results: • 1. CBC's were unchanged and remained within the normal range. • 2.”\nPeripheral blood mononuclear cells (PBMC) were isolated from peripheral blood, and 2,000,000 cells were cultured in DMEM medium with 10% human AB serum plus 2% (final concentration) of anti-T-cell receptor complex antibody OKT3. […] After culture overnight at 37° C. cells were washed, incubated with an anti-CD69 antibody, fixed and analyzed on the flow cytometer for CD69 expression. […]"}}, "note": "“And” between values parts separate entries of the source, which are not always exact repeats. Equal values may be shown once."}
{"smiles": "C[C@@H]1NC(=O)[C@H](CC(=O)O)NC1=O", "note": "[DA-DKP]", "values": [{"measurement": "Lipids at 24 hours post ingestion", "setting": "[1]", "result": "decreased across the board"}, {"measurement": "Cytoskeletal network in endothelial cells", "setting": "endothelial cells", "result": "stabilize"}, {"measurement": "Activation of T-cells", "setting": "T-cells", "result": "inhibit"}, {"measurement": "Aggregation of platelets", "setting": "platelets", "result": "inhibit"}, {"measurement": "BUN, glucose electrolytes, creatinine, liver function tests, total protein, albumin and calcium", "setting": "[2]; 24 hours post ingestion, within the normal range", "result": "unchanged"}, {"measurement": "CBC", "setting": "[2]; remained within the normal range", "result": "unchanged"}, {"measurement": "MAPK activity in T-lymphocytes", "setting": "MAPK", "result": "inhibitory effect"}, {"measurement": "Effect on adipogenesis", "setting": "[3]; 25 μM", "result": "significant decrease"}, {"measurement": "Effect on adipogenesis", "setting": "[3]; 100 μM", "result": "increase"}, {"measurement": "Vascular hyperpermeability", "setting": "[4]", "result": "inhibit"}, {"measurement": "Duration of loss of appetite", "setting": "[5]; human", "result": "8 to 9", "unit": "h"}, {"measurement": "Laxative effect, subjects affected", "setting": "[5]; human", "result": "1/3"}, {"measurement": "Significant loss of appetite, subjects affected", "setting": "[5]; human", "result": "3/3"}, {"measurement": "Slight drowsiness, subjects affected", "setting": "[5]; human", "result": "1/3"}, {"measurement": "Slight dry mouth, subjects affected", "setting": "[5]; human", "result": "2/3"}, {"measurement": "Thick saliva, subjects affected", "setting": "[5]; human", "result": "1/3"}, {"measurement": "Analgesic effect, subjects affected", "setting": "[5]; human, others did not have pain", "result": "1/3"}, {"measurement": "Duration of analgesic effect", "setting": "[5]; one subject", "result": "about 4 hrs"}, {"measurement": "Reduction of SI joint pain", "setting": "[5]; one subject", "result": "about 50%"}, {"measurement": "Time to analgesic effect after ingestion", "setting": "[5]; one subject", "result": "1 to 2", "unit": "h"}, {"measurement": "Left knee pain", "setting": "[5]; one subject, pain 6-7 on a scale of 1-10 before treatment", "result": "resolved completely"}, {"measurement": "Effect on IL-6 levels", "setting": "interleukin-6 (IL-6)", "result": "no significant effect"}, {"measurement": "DA-DKP plasma level at 24 hrs post ingestion", "setting": "[6]; human", "result": "not detectable"}, {"measurement": "Time of peak DA-DKP plasma level", "setting": "[6]; human", "result": "about 2 hrs"}, {"measurement": "DA-DKP in plasma, 15 min", "setting": "[6]; 15 min, per human subject", "result": 0.14, "unit": "µM"}, {"measurement": "DA-DKP in plasma, 30 min", "setting": "[6]; 30 min, per human subject", "result": 0.35, "unit": "µM"}, {"measurement": "DA-DKP in plasma, 60 min", "setting": "[6]; 60 min, per human subject", "result": 0.84, "unit": "µM"}, {"measurement": "DA-DKP in plasma, 240 min", "setting": "[6]; 240 min, per human subject", "result": "0.25 µM and 0.34 µM"}, {"measurement": "DA-DKP in plasma, 360 min", "setting": "[6]; 360 min, per human subject", "result": 0.61, "unit": "µM"}, {"measurement": "DA-DKP in Saliva 2 hrs", "setting": "[6]; saliva at 2 hrs, per human subject", "result": "0.22 µM and 0.29 µM"}, {"measurement": "DA-DKP in Urine 24 hrs", "setting": "[6]; urine collected for 24 hrs, per human subject", "result": "4.25 µM and 6.98 µM and 3.52 µM"}, {"measurement": "Time of greatest effect on CD69 expression", "setting": "[7]; after DA-DKP ingestion", "result": 4, "unit": "h"}, {"measurement": "CD69 expression on CD45RA and CD45RO cells", "setting": "[7]; after ingestion of DA-DKP vs time zero, OKT3 stimulation", "result": "decreased"}]}
